Measured values as given in patent EP0184471A1, “Product containing an antiprogestomimetic and a uterotonic substance” (ROUSSEL-UCLAF, priority 1984, dated 1986).
Marks after values point to notes of the source that are not given here.

Test system: grossesse apparemment normale et une aménorhée de 49 jours au plus
Test: Clinical study of termination of early pregnancy: oral RU 486 alone or with an intramuscular sulprostone injection
Type: in vivo, jeunes femmes
Protocol: L'étude a porté sur 33 jeunes femmes en bonne santé présentant une grossesse apparemment normale et une aménorhée de 49 jours au plus.
Le composé RU 486 a été administré oralement à différentes doses : • 1) 25 mg 2 fois par jour pendant 4 jours. • 2) 25 mg 4 fois par jour pendant 4 jours.
Chez 16 patientes une injection intramusculaire de 0,25 mg de la méthylsulfonylamide de la 16-phénoxytétranor PG E2 (sulprostone) a été administrée le matin du dernier jour de traitement par le RU 486. Les sujets ont jeuné au moins une heure avant jusqu'à une heure après la prise du produit.
Les résultats obtenus sont rapportés dans le tableau I ci-après.

[1] = number of patients, RU 486 25 mg orally 2 times per day for 4 days (25 x 2), n=11 group A, n=9 group B
[2] = number of patients, RU 486 25 mg orally 4 times per day for 4 days (25 x 4), n=6 group A, n=7 group B
[3] = number of patients, Total of both RU 486 doses, n=17 group A, n=16 group B
[4] = percent of patients, Total of both RU 486 doses, n=17 group A

## CC#C[C@]1(O)CC[C@H]2[C@@H]3CCC4=CC(=O)CCC4=C3[C@@H](c3ccc(N(C)C)cc3)C[C@@]21C [RU 486, 11β-(4-diméthylaminophényl) 170 - hydroxy 17α-(prop-l-ynyl) estra 4,9 - dièn 3 - one]
[1]
  Avortements complets: 8
  Avortements incomplets: 1
Number of patients, RU 486 25 mg orally 2 times per day for 4 days (25 x 2), n=11 group A, n=9 group B, group A value includes one extra-uterine pregnancy
  Poursuite de la grossesse: 2*
[2]
  Avortements complets: 5
  Avortements incomplets: 0
  Poursuite de la grossesse: 1
[3]
  Avortements complets: 13
  Avortements incomplets: 1
  Poursuite de la grossesse: 3
[4]
  Avortements incomplets: 5,9%
  Poursuite de la grossesse: 17,6%
Percent of patients, Total of both RU 486 doses, n=17 group A, n=16 group B
  Avortements complets: 76,5%
